Reference: patent US12364678B2, “Pharmaceutical composition comprising palmitoylethanolamide and L- Acetylcarnitine” (EPITECH GROUP S.P.A., priority 2014, dated 2025)

Key:
[1] = tested on: carrageenan; test: Carrageenan (CAR) test, paw edema volume by plethysmometer; assay type: in vivo, Wistar male rats; conditions: for effect on the formation of the edema by carrageenan (paw volume): 5 mg/kg orally, alone, 30 minutes to 6 hours after carrageenan (FIG. 2a); for reduction of the volume of the legs after CAR: all time points (FIG. 3a)
Procedure: The carrageenan (CAR) test was performed according to a protocol that provides intra-plantar injection of carrageenan in rats and administration of the active ingredient orally by gavage. This is a standard inflammation test. The 1% (weight/volume) carrageenan solution (Sigma) was prepared in sterile saline and subsequently kept at 37° C. for 1 hour to obtain complete solubilization. The paw edema was induced in Wistar male rats by injecting 200 μl of carrageenan into the plantar aponeurosis of the right hind paw. The increase in size of the treated paw was measured prior to induction and 30 minutes after injection of the inflammatory agent using a plethysmometer (model 7140; Ugo Basile). The subsequent paw size measurements were taken at 60-minute intervals with respect to the first measurement, for a total of 7 measurements. The difference between the values obtained from the treated animals and the control animals was calculated and assessed statistically for all six hours.

[2] = tested on: carrageenan; test: Carrageenan (CAR) test, hyperalgesic response, paw withdrawal latency (Plantar Test); assay type: in vivo, Wistar male rats; conditions: for lengthening of the retraction time compared to the control: 5 mg/kg, individually administered (FIG. 2b); for increase of latency time after CAR: all time points (FIG. 3b)
Procedure: The carrageenan (CAR) test was performed according to a protocol that provides intra-plantar injection of carrageenan in rats and administration of the active ingredient orally by gavage. This is a standard inflammation test. The 1% (weight/volume) carrageenan solution (Sigma) was prepared in sterile saline and subsequently kept at 37° C. for 1 hour to obtain complete solubilization. The paw edema was induced in Wistar male rats by injecting 200 μl of carrageenan into the plantar aponeurosis of the right hind paw. Hyperalgesic response to heat was measured at various time points (0, 30 min, 1, 2, 3, 4, 5 and 6 h) in accordance with the method described by Hargreaves et al. (Pain, 32 (1988), 77-88) using the Plantar Test 7371 (Ugo Basile, Italy). In short, the animals were allowed to move freely in an open transparent plastic chamber. After a period of acclimatization, a heat source radiating infrared light (IR 60) was placed under the glass floor and concentrated on the hind paw. When the animal felt pain and withdrew its paw, the source was turned off and the time measured was recorded.

[3] = tested on: sciatic nerve ligation; conditions: 10 mg/kg; cited from earlier work
[4] = tested on: sciatic nerve ligation; test: Mechanical allodynia after sciatic nerve ligation (neuropathic pain model), Dynamic Plantar Aesthesiometer; assay type: in vivo, mice of the C57BL/6J strain; conditions: alone
Procedure: The experiments were carried out by using male mice of the C57BL/6J strain with a weight ranging between 25 and 30 g; 10 animals per group were used. The animals were anesthetized with sodium pentobarbital (60 mg/kg, i.p.) and subjected to a surgical procedure of sciatic nerve ligation capable of inducing neuropathic pain in accordance with the method described by Bennet and Xie (1988, Pain; 33:87-107). Sham animals were used as a control. The products were administered p.o. with a tube, suspended in 2% CarboxymethylCellulose. The mechanical allodynia was measured by using the Dynamic Plantar Aesthesiometer equipment of the Company Ugo Basile-Varese, Italy. The values in the table are referred to the weight, expressed in grams, to which the animal object of the experiment, subjected thereto, withdraws its paw when feeling pain.

[5] = tested on: sciatic nerve ligation; conditions: 100 mg/kg; cited from earlier work

SMILES: CCCCCCCCCCCCCCCC(=O)NCCO [PEA-m, palmitoylethanolamide]
- effect on the formation of the edema by carrageenan (paw volume) [1]: does not have a significant effect
- lengthening of the retraction time compared to the control [2]: do not show any effect

SMILES: CCCCCCCCCCCCCCCC(=O)NCCO [palmitoylethanolamide]
- effect in the neuropathic pain model [3]: particularly relevant effect

SMILES: CC(=O)O[C@H](CC(=O)[O-])C[N+](C)(C)C [LAC, L-Acetylcarnitine]
- alleviation of the neuropathic pain (mechanical allodynia) ([4]; 10 mg/kg p.o.): do not cause a significant activity
- alleviation of the neuropathic pain (mechanical allodynia) ([4]; 100 mg/kg p.o.): significant alleviation
- effect on the formation of the edema by carrageenan (paw volume) [1]: does not have a significant effect
- reduction of the volume of the legs after CAR ([1]; LAC 3.0 mg/kg oral): did not achieve a significant reduction
- reduction of the volume of the legs after CAR ([1]; LAC 5.0 mg/kg oral): did not achieve a significant reduction
- lengthening of the retraction time compared to the control [2]: do not show any effect
- increase of latency time after CAR ([2]; LAC 3.0 mg/kg oral): did not achieve a significant increase
- increase of latency time after CAR ([2]; LAC 5.0 mg/kg oral): did not achieve a significant increase
- mechanical allodynia [5]: decrease the mechanical allodynia

SMILES: CCCCCCCCCCCCCCCC(=O)NCCO [PEA-um, palmitoylethanolamide]
- alleviation of the neuropathic pain (mechanical allodynia) ([4]; 5 mg/kg p.o.): do not cause a significant activity
- alleviation of the neuropathic pain (mechanical allodynia) ([4]; 10 mg/kg p.o.): significant alleviation
